Assay results published in the supplement of paper PMC10307832.

Assays:
Assay in all cases: relative viability (nuclei count vs DMSO), 5 days (fraction); higher = more cells survive
CX-5461 + Trametinib = compound: Cc1cnc(CNC(=O)c2c(=O)c3ccc(N4CCCN(C)CC4)nc3n3c2sc2ccccc23)cn1 [CX-5461] + CC(=O)Nc1cccc(-n2c(=O)n(C3CC3)c(=O)c3c(Nc4ccc(I)cc4F)n(C)c(=O)c(C)c32)c1 [Trametinib] (partner 0.02 µM)
Outline: (§1)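 Lung cancer cell lines were pin-tool dosed in 1536-well plates on the day after seeding, with either a lone drug or a fixed anchor-drug dose plus five library-drug doses (not always all listed) in √10 steps. Nuclei were counted on 4× images after 5 days. Relative viability is the ratio of treated-well to vehicle-well nuclei counts, with each value a median of duplicate plates.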

CX-5461 + Pictilisib = compound: Cc1cnc(CNC(=O)c2c(=O)c3ccc(N4CCCN(C)CC4)nc3n3c2sc2ccccc23)cn1 [CX-5461] + CS(=O)(=O)N1CCN(Cc2cc3nc(-c4cccc5[nH]ncc45)nc(N4CCOCC4)c3s2)CC1 [Pictilisib] (partner 1 µM)
Outline: as §1

CX-5461 + AZD7762 = compound: Cc1cnc(CNC(=O)c2c(=O)c3ccc(N4CCCN(C)CC4)nc3n3c2sc2ccccc23)cn1 [CX-5461] + NC(=O)Nc1cc(-c2cccc(F)c2)sc1C(=O)N[C@H]1CCCNC1 [AZD7762] (partner 0.2 µM)
Outline: as §1

IMD-0354 + Phenformin = compound: O=C(Nc1cc(C(F)(F)F)cc(C(F)(F)F)c1)c1cc(Cl)ccc1O [IMD-0354] + N=C(N)NC(=N)NCCc1ccccc1 [Phenformin] (partner 250 µM)
Outline: as §1

Cell Line	relative viability (CX-5461 + Trametinib; first compound 0.01 µM)	relative viability (CX-5461 + Trametinib; first compound 0.03162 µM)	relative viability (CX-5461 + Trametinib; first compound 0.1 µM)	relative viability (CX-5461 + Trametinib; first compound 0.3162 µM)	relative viability (CX-5461 + Trametinib; first compound 1 µM)	relative viability (CX-5461 + Pictilisib; first compound 0.01 µM)	relative viability (CX-5461 + Pictilisib; first compound 0.03162 µM)	relative viability (CX-5461 + Pictilisib; first compound 0.1 µM)	relative viability (CX-5461 + Pictilisib; first compound 0.3162 µM)	relative viability (CX-5461 + Pictilisib; first compound 1 µM)	relative viability (CX-5461 + AZD7762; first compound 0.01 µM)	relative viability (CX-5461 + AZD7762; first compound 0.03162 µM)	relative viability (CX-5461 + AZD7762; first compound 0.1 µM)	relative viability (CX-5461 + AZD7762; first compound 0.3162 µM)	relative viability (CX-5461 + AZD7762; first compound 1 µM)	relative viability (IMD-0354 + Phenformin; first compound 0.04 µM)	relative viability (IMD-0354 + Phenformin; first compound 0.1265 µM)	relative viability (IMD-0354 + Phenformin; first compound 0.4 µM)	relative viability (IMD-0354 + Phenformin; first compound 1.265 µM)	relative viability (IMD-0354 + Phenformin; first compound 4 µM)
NCI-H1755	0.826	0.796	0.836	0.719	0.753	0.463	0.484	0.446	0.301	0.383	0.453	0.447	0.38	0.413	0.406	0.603	0.547	0.411	0.273	0.252
HCC-78	0.76	0.82	0.88	0.753	0.71	0.187	0.194	0.172	0.252	0.212	0.862	0.695	0.601	0.596	0.614	0.667	0.697	0.398	0.439	0.292
IA-LM						0.337	0.327	0.254	0.33	0.207										
NCI-H322M	0.441	0.542	0.55	0.407	0.508	0.578	0.535	0.575		0.464	0.531	0.517	0.526	0.523	0.509	0.865	0.796	0.378	0.277	0.375
NCI-H3122	0.21	0.213	0.205	0.248	0.186	0.558	0.657	0.617	0.533	0.608	1.06	0.946	0.936	1.03	0.607	0.401	0.339	0.136	0.064	0.0975
SK-LU-1	0.503	0.439	0.49	0.506	0.345	0.659	0.616	0.602	0.573	0.417						0.713	0.413	0.303	0.193	0.187
COR-L23	0.779	0.727	0.556	0.435	0.366	0.811	1.15	0.656	0.65	0.443						0.466	0.373	0.263	0.108	0.0986
NCI-H2087	0.173	0.268	0.201	0.209	0.186	0.887	1.02	1.07	0.282	0.716	1.22	1.42	1.44	1.43	1.13	0.481	0.258	0.206	0.119	0.128
NCI-H2023	0.54	0.564		0.491	0.115	0.284	0.257		0.0857	0.102						0.446	0.409	0.223	0.109	0.147
COR-L 105	0.448	0.47	0.429	0.388	0.352	0.425	0.461	0.352	0.281	0.333						0.659	0.462	0.39	0.183	0.211
